These results are taken from ChEMBL document CHEMBL4622906, “Design, synthesis and evaluation of novel levoglucosenone derivatives as promising anticancer agents” (Bioorg Med Chem Lett, 2020).

Data set [1] concerns MDA-MB-231. As to the kind of experiment: Cytotoxicity against human MDA-MB-231 cells assessed as reduction in cell viability incubated for 48 hrs by MTT assay. In kind it is functional, cell-based. The conditions noted are these: MDA-MB-231, 48 h.
The test system of data set [2] is NCI-H1299. As to the kind of experiment: Cytotoxicity against human H1299 cells assessed as reduction in cell viability incubated for 48 hrs by MTT assay. The conditions noted are these: NCI-H1299, 48 h. In kind it is functional, cell-based. Background: Tetrazolium dyes change colour on reduction, which living cells bring about.
Data set [3] deals with NCI-H1299. As to the kind of experiment: Cytotoxicity against human H1299 cells with p53 R280K mutant assessed as reduction in cell viability incubated for 48 hrs by MTT assay. Format: functional, cell-based.
Data set [4] has as its system MDA-MB-231. As to the kind of experiment: Cytotoxicity against human MDA-MB-231 cells with p53 knock down assessed as reduction in cell viability incubated for 48 hrs by MTT assay. Format: functional, cell-based.
The subject of another data set is HT-29. As to the kind of experiment: Cytotoxicity against human HT-29 cells assessed as reduction in cell viability incubated for 48 hrs by MTT assay. The following applies: HT-29, 48 h. In kind it is functional, cell-based.
The nature of data set [5]: Selectivity index, ratio of IC50 for African green monkey Vero cells to IC50 for human H1299 cells. In kind it is toxicity. The following applies: Vero cells versus H1299 cells, read-out: Ratio IC50.
Data set [6] can be described thus: Selectivity index, ratio of IC50 for African green monkey Vero cells to IC50 for human MDA-MB-231 cells. Format: toxicity. The conditions noted are these: Vero cells versus MDA-MB-231 cells, read-out: Ratio IC50.
Data set [7] is described as follows: Selectivity index, ratio of IC50 for African green monkey Vero cells to IC50 for human HT-29 cells. Format: toxicity. The conditions noted are these: Vero cells versus HT-29 cells, read-out: Ratio IC50.

Activity calls are given as the source filed them. No cut-off for these calls is given here.

For `O=C1C[C@H](OCc2cc(-c3ccc4ccccc4c3)no2)[C@H]2CO[C@@H]1O2`, the IC50 – broadly, the midpoint of a concentration-inhibition curve – with MDA-MB-231 [1] was 21.2 µM.
On the same count and under the same terms, the value for `O=C1C[C@H](OCc2cn(-c3ccccc3Cl)nn2)[C@H]2CO[C@@H]1O2` was 26.4 µM.
Turning to `COC(=O)Cn1cc(CN(C(C)=O)[C@H]2CC(=O)[C@@H]3OC[C@H]2O3)nn1`, the IC50 in the data set on MDA-MB-231 [1] is above 50 µM.
Take `O=C1C[C@H](OCc2cn(-c3ccccc3)nn2)[C@H]2CO[C@@H]1O2`: the IC50 with NCI-H1299 [2] came out at 10.9 µM; in the data set on HT-29, 13.4 µM; in the data set on MDA-MB-231 [1], 25.2 µM. The “cytotoxicity activity call (active/inactive)” value in the data set with NCI-H1299 [3] was “Active”. The inhibition entry in the data set on MDA-MB-231 [4] was “inactive”.
In the case of `O=C1C[C@H](OCc2cn(Cc3ccccc3)nn2)[C@H]2CO[C@@H]1O2`, the IC50 with MDA-MB-231 [1] is above 50 µM.
Still for that read-out and setting: the value for `O=C1C[C@H](OCc2cn(Cc3ccc([N+](=O)[O-])cc3)nn2)[C@H]2CO[C@@H]1O2` was 25.4 µM; that for `CCCCn1cc(CO[C@H]2CC(=O)[C@@H]3OC[C@H]2O3)nn1` was 27.9 µM.
Consider `O=C1C[C@H](OCc2cn(-c3ccc([N+](=O)[O-])cc3)nn2)[C@H]2CO[C@@H]1O2`, for which the IC50 in the data set with NCI-H1299 [2] worked out at 10.3 µM; with HT-29 it was 18.3 µM; in the data set with MDA-MB-231 [1] it was 24.8 µM. Moreover, in the data set on NCI-H1299 [3], the “cytotoxicity activity call (active/inactive)” value is “Active”. Besides, the inhibition result with MDA-MB-231 [4] was “inactive”.
Consider `O=C1C[C@H](OCc2cn(-c3cccc(Cl)c3Cl)nn2)[C@H]2CO[C@@H]1O2`, for which, in the data set on MDA-MB-231 [1], the half-maximal inhibitory concentration (IC50) amounted to 26 µM.
Same read-out and setting: the value for `O=C1CCCCC1n1cc(CO[C@H]2CC(=O)[C@@H]3OC[C@H]2O3)nn1` (some centres undefined) was 36 µM.
As to `O=C1C[C@H](OCc2cc(-c3cc(C(F)(F)F)cc(C(F)(F)F)c3)no2)[C@H]2CO[C@@H]1O2`, in the data set on MDA-MB-231 [1], the IC50 amounted to 23.9 µM.
On the same count and under the same terms, for `CC(=O)N(Cc1cn(Cc2ccccc2)nn1)[C@H]1CC(=O)[C@@H]2OC[C@H]1O2` the value was above 50 µM.
For the compound `O=C1C[C@H](OCc2cc(/C=C/c3ccccc3)no2)[C@H]2CO[C@@H]1O2`, the values for the IC50 in the data set with NCI-H1299 [2], in the data set on HT-29 and in the data set on MDA-MB-231 [1] were 7.1 µM, 13.7 µM and 22.9 µM, respectively. In addition, the “cytotoxicity activity call (active/inactive)” value in the data set with NCI-H1299 [3] was “Active”. Further, the inhibition result with MDA-MB-231 [4] is “inactive”.
As for `O=C1C[C@H](OCc2cn(-c3ccc(F)cc3)nn2)[C@H]2CO[C@@H]1O2`, the IC50 in the data set with MDA-MB-231 [1] came to 23.7 µM.
On to `O=C1C[C@H](OCc2cc(-c3ccc(Cl)o3)no2)[C@H]2CO[C@@H]1O2`, for which the values for the IC50 in the data set on NCI-H1299 [2], in the data set on HT-29 and in the data set on MDA-MB-231 [1] were 7.6 µM, 10.1 µM and 13.8 µM, respectively. For the same compound, the “cytotoxicity activity call (active/inactive)” value with NCI-H1299 [3] was “Active”. For the same compound, the inhibition entry with MDA-MB-231 [4] is “inactive”.
For the compound `O=C1C[C@H](OCc2cn(-c3ccccc3Br)nn2)[C@H]2CO[C@@H]1O2`, the IC50 in the data set on MDA-MB-231 [1] is 22.5 µM.
Same read-out and setting: for `COc1ccc(-c2cc(CO[C@H]3CC(=O)[C@@H]4OC[C@H]3O4)on2)cc1` the value was 21.9 µM.
For the compound `O=C1C[C@H](OCc2cc(-c3ccc([N+](=O)[O-])cc3)no2)[C@H]2CO[C@@H]1O2`, the figures for the half-inhibitory concentration (IC50) in the data set with NCI-H1299 [2], in the data set on HT-29 and with MDA-MB-231 [1] were 11.2 µM, 19.8 µM and 16.5 µM, respectively. In addition, in the data set on NCI-H1299 [3], the “cytotoxicity activity call (active/inactive)” value is “Active”. Further, in the data set with MDA-MB-231 [4], the inhibition entry is “inactive”.
On to `CCCCCCCCn1cc(CO[C@H]2CC(=O)[C@@H]3OC[C@H]2O3)nn1`, for which the IC50 with MDA-MB-231 [1] was above 50 µM.
`C=C(C)Cn1cc(CO[C@H]2CC(=O)[C@@H]3OC[C@H]2O3)nn1`: the IC50 came out at 14.3 µM in the data set on NCI-H1299 [2], 17.2 µM with HT-29 and 26.7 µM in the data set on MDA-MB-231 [1]. Further, in the data set on NCI-H1299 [3], the “cytotoxicity activity call (active/inactive)” value was “Active”. In addition, in the data set on MDA-MB-231 [4], the inhibition entry is “inactive”.
Regarding `O=C(Cn1cc(CO[C@H]2CC(=O)[C@@H]3OC[C@H]2O3)nn1)c1ccccc1`, the IC50 with MDA-MB-231 [1] came out at 25.9 µM.
Consider `O=C1C[C@H](OCc2cn(C3CCCCC3)nn2)[C@H]2CO[C@@H]1O2`, for which the selectivity ratio was 5 in data set [5], above 2 in data set [6] and 6 in data set [7]. The IC50 turned out to be 12 µM in the data set with NCI-H1299 [2], 11.9 µM in the data set on HT-29 and 24.3 µM in the data set on MDA-MB-231 [1]. In the data set with NCI-H1299 [3], the “cytotoxicity activity call (active/inactive)” value was “Active”. The inhibition entry with MDA-MB-231 [4] was “inactive”.
Consider `COc1ccc(/C=C/c2cc(CO[C@H]3CC(=O)[C@@H]4OC[C@H]3O4)on2)cc1`, for which, in the data set on MDA-MB-231 [1], the IC50 amounted to 26.4 µM.
Regarding `O=C1C[C@H](OCc2cc(-c3ccc(Cl)cc3)no2)[C@H]2CO[C@@H]1O2`, the IC50 turned out to be 9 µM with NCI-H1299 [2], 14.5 µM with HT-29 and 17.9 µM in the data set on MDA-MB-231 [1]. Besides, in the data set with NCI-H1299 [3], the “cytotoxicity activity call (active/inactive)” value was “Active”. The inhibition entry with MDA-MB-231 [4] is “inactive”.
Take `CCCCCCCCn1cc(CN(C(C)=O)[C@H]2CC(=O)[C@@H]3OC[C@H]2O3)nn1`: the IC50 with MDA-MB-231 [1] was above 50 µM.
On the same count and under the same terms, for `O=C1C[C@H](OCc2cn(-c3cccc4ccccc34)nn2)[C@H]2CO[C@@H]1O2` the value was 21.9 µM; for `O=C(O)c1ccc(-n2cc(CO[C@H]3CC(=O)[C@@H]4OC[C@H]3O4)nn2)cc1`, 23.2 µM; for `COC(=O)Cn1cc(CO[C@H]2CC(=O)[C@@H]3OC[C@H]2O3)nn1`, 21.3 µM.
Still for that read-out and setting: the value for `COc1ccc(Cn2cc(CO[C@H]3CC(=O)[C@@H]4OC[C@H]3O4)nn2)cc1` was 34.8 µM.
With `O=C1C[C@H](OCc2cc(-c3ccccc3)no2)[C@H]2CO[C@@H]1O2`, the IC50 with NCI-H1299 [2] was 9.8 µM; with HT-29 it was 16.9 µM; in the data set on MDA-MB-231 [1], 21.9 µM. The “cytotoxicity activity call (active/inactive)” value in the data set with NCI-H1299 [3] is “Active”. Also, the inhibition entry with MDA-MB-231 [4] was “inactive”.
Take `O=C1C[C@H](OCc2cn(C(=O)OCC3c4ccccc4-c4ccccc43)nn2)[C@H]2CO[C@@H]1O2`: the selectivity ratio in data set [5] was 5; in data set [6] it was above 2; in data set [7], 6. Also, the IC50 came out at 9 µM in the data set with NCI-H1299 [2], 15.6 µM with HT-29 and 18.6 µM with MDA-MB-231 [1]. Also, the “cytotoxicity activity call (active/inactive)” value in the data set on NCI-H1299 [3] is “Active”. Moreover, in the data set on MDA-MB-231 [4], the inhibition entry was “inactive”.
Regarding `CC(=O)N(Cc1cn(CC(=O)c2ccccc2)nn1)[C@H]1CC(=O)[C@@H]2OC[C@H]1O2`, the IC50 in the data set on MDA-MB-231 [1] is above 50 µM.
`O=C1C[C@H](OCc2cc(C3CCCCC3)no2)[C@H]2CO[C@@H]1O2`: the half-maximal inhibitory concentration (IC50) came to 6.1 µM with NCI-H1299 [2], 9 µM in the data set on HT-29 and 15.8 µM in the data set with MDA-MB-231 [1]. Also, the “cytotoxicity activity call (active/inactive)” value in the data set on NCI-H1299 [3] is “Active”. Besides, the inhibition result with MDA-MB-231 [4] is “inactive”.
As to `O=C1C[C@H](OCc2cn(Cc3ccc4ccccc4c3)nn2)[C@H]2CO[C@@H]1O2`, the IC50 in the data set on MDA-MB-231 [1] is 23.7 µM.
As for `O=C1C[C@H](OCc2cn(-c3ccc(Cl)cc3)nn2)[C@H]2CO[C@@H]1O2`, the IC50 in the data set with NCI-H1299 [2] was 10.6 µM; in the data set on HT-29, 14.7 µM; in the data set with MDA-MB-231 [1], 26.1 µM. Besides, in the data set with NCI-H1299 [3], the “cytotoxicity activity call (active/inactive)” value was “Active”. The inhibition entry in the data set with MDA-MB-231 [4] is “inactive”.
